Test results taken from patent publication US9296725B2, “Heterocyclyl pyrimidine analogues as TYK2 inhibitors” (Cellzome Limited, priority 2012, dated 2016).
Where two headings read alike, the source gives them in different places.

Experiments:
[1] = target: T1, TYK2 (Homo sapiens, UniProt P29597); experiment: Kinobeads assay, TYK2 (competition binding in mixed Molt4/Ramos cell lysate, dot blot detection)
T1 construct: endogenous in cells; host or cells: Molt4 (ATCC CRL-1582) and Ramos (ATCC CRL-1596), mixed lysate 1:2
Outline: (§1)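 Competition binding: compound dilutions (1:3 series, 9 steps) plus immobilized aminopyrido-pyrimidine beads incubated 3 h in the cold with mixed Molt4/Ramos lysate (1:2) at 10 mg/mL protein. Bead-bound JAK2/TYK2 eluted and quantified by antibody dot blot with infrared detection; IC50 from dose-response curves.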

[2] = target: T2, JAK2 (Homo sapiens, UniProt O60674); experiment: Kinobeads assay, JAK2 (competition binding in mixed Molt4/Ramos cell lysate, dot blot detection); conditions: read-out: JAK2 Band (Kinobeads assay potency, IC50)
T2 construct: endogenous in cells; host or cells: Molt4 (ATCC CRL-1582) and Ramos (ATCC CRL-1596), mixed lysate 1:2
Outline: as §1

[3] = Kinobeads assay, Molt4/Ramos lysate, read-out: TYK2 Band (Kinobeads assay potency, IC50)

T2 sequence (O60674 whole entry): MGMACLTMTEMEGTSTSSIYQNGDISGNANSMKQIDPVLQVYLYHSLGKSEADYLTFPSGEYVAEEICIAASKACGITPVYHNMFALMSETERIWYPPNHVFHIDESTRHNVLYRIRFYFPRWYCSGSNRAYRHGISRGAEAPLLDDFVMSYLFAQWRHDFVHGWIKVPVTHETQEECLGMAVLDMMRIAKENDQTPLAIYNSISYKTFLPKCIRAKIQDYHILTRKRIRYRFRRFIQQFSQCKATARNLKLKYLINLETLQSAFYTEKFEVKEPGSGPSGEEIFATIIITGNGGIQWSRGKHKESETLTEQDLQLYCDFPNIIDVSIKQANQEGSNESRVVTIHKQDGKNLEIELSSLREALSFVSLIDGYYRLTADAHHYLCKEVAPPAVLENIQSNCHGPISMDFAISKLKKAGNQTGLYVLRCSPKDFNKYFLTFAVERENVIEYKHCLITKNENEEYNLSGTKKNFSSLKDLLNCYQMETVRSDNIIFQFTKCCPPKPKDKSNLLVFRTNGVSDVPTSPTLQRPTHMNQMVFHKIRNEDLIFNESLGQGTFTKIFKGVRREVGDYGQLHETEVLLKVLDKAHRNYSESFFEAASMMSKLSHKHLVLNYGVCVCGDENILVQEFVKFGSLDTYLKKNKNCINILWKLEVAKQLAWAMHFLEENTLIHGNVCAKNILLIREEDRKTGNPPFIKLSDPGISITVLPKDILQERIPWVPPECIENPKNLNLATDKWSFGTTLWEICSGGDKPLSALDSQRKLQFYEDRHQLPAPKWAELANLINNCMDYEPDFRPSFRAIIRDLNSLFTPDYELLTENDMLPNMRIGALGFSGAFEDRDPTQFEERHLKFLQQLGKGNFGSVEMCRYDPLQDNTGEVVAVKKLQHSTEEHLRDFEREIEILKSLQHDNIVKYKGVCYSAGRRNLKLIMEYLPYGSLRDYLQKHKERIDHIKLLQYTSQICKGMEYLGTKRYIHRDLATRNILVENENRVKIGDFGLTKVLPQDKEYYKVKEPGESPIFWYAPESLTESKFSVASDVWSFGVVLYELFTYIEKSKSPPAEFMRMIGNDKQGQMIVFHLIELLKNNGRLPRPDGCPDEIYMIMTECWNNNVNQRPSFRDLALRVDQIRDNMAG
T1 sequence (P29597 whole entry): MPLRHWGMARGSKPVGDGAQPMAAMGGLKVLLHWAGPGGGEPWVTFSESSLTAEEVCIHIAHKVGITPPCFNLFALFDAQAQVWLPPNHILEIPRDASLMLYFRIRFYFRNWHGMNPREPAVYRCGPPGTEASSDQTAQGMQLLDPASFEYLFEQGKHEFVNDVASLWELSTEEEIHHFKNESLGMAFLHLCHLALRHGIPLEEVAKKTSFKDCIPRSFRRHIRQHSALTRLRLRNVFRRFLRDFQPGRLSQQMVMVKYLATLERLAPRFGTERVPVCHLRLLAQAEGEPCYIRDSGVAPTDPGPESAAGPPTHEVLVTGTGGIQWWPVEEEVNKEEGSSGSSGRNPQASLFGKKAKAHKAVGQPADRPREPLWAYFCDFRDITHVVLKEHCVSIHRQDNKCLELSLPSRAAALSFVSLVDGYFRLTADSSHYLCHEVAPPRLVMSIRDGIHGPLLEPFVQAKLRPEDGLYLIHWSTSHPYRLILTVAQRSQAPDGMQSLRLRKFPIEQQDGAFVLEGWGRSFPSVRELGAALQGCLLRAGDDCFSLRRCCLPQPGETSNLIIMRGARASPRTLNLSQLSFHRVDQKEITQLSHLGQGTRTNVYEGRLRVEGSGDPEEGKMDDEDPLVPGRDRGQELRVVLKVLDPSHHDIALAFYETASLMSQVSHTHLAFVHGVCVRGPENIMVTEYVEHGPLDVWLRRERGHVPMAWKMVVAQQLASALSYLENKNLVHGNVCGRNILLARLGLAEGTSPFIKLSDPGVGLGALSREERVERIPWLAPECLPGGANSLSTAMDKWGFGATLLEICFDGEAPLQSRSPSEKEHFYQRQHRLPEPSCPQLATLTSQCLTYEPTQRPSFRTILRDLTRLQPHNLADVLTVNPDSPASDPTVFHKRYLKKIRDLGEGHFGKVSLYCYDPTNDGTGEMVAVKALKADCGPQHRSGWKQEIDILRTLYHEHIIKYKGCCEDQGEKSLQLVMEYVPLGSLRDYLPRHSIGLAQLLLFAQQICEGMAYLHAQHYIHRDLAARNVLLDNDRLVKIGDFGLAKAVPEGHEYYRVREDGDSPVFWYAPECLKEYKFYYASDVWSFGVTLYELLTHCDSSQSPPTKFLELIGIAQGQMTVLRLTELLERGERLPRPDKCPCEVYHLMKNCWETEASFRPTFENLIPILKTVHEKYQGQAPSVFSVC

Structure (SMILES) | IC50 [1, 3] | IC50 [2] | IC50 ([1]; read-out: TYK2 IC50)
CS(=O)(=O)c1ccccc1CNc1nc(Nc2cnn(CC(=O)N3CCOCC3)c2)ncc1Cl [Example I-453] | 0.1 to 1 µM | 0.1 to 1 µM | 
C[C@@H](CO)NC(=O)Cn1cc(Nc2nccc(NCc3c(F)cc(F)cc3Cl)n2)cn1 [Example I-132] | ≤ 0.01 µM | 1 to 10 µM | 
CC(C)NC(=O)Cn1cc(Nc2nccc(NCc3cccc(OC(F)F)c3)n2)cn1 [Example I-67] | 0.01 to 0.1 µM | > 10 µM | < 0.1 µM
Cc1cnc(Nc2cnn(CCO)c2)nc1NCc1c(F)cccc1F [Example I-298] | ≤ 0.01 µM | 0.1 to 1 µM | 
COc1ccc(Cl)c(CNc2ccnc(Nc3cnn(CC(=O)NC(C)C)c3)n2)c1F [Example I-79] | ≤ 0.01 µM | 1 to 10 µM | 
N#Cc1cccc(CNc2nc(Nc3cnn(CCO)c3)ncc2Cl)c1 [Example I-182] | 0.01 to 0.1 µM | 0.1 to 1 µM | 
CNC(=O)Cn1cc(Nc2ncc(Cl)c(NCc3cccc(F)c3)n2)cn1 [Example I-212] | 0.1 to 1 µM | 0.1 to 1 µM | 
Cc1cnc(Nc2cnn(CC(=O)NC3CC3)c2)nc1NCc1cc(F)cc(F)c1 [Example I-344] | 0.01 to 0.1 µM | 0.1 to 1 µM | 
NC(=O)Cn1cc(Nc2ncc(Cl)c(NCc3cc(Br)cc(F)c3F)n2)cn1 [Example I-261] | 0.1 to 1 µM | 0.1 to 1 µM | 
CC(C)(C)OC(=O)N1CC2CCC1CN2C(=O)Cn1cc(Nc2ncc(Cl)c(NCc3ccccc3)n2)cn1 (stereo not shown) [Example I-197] | 0.1 to 1 µM | 1 to 10 µM | 
O=C(Cn1cc(Nc2nccc(NCc3c(F)cccc3Cl)n2)cn1)NCC(F)F [Example I-141] | 0.01 to 0.1 µM | 1 to 10 µM | 
NS(=O)(=O)c1ccc(CNc2nc(Nc3cnn(CC(=O)N4CCCCC4)c3)ncc2F)cc1 [Example I-30] | 0.01 to 0.1 µM | > 10 µM | 
C[C@H](CO)NC(=O)Cn1cc(Nc2ncc(F)c(NCc3c(F)cc(F)cc3F)n2)cn1 [Example I-41] | 0.01 to 0.1 µM | 1 to 10 µM | 
CCOc1ccc(F)c(CNc2nc(Nc3cnn(CC(=O)N(C)C)c3)ncc2Cl)c1F [Example I-268] | 0.01 to 0.1 µM | 1 to 10 µM | 
OCCn1cc(Nc2ncc(F)c(NCc3ccccc3F)n2)cn1 [Example I-205] | 0.01 to 0.1 µM | 1 to 10 µM | 
C[C@H](O)Cn1cc(Nc2ncc(Cl)c(NCc3ccccc3F)n2)cn1 [Example I-257] | 0.1 to 1 µM | 0.1 to 1 µM | 
COc1ccc(F)c(CNc2nc(Nc3cnn(CC(=O)NC(C)C)c3)ncc2F)c1F [Example I-48] | ≤ 0.01 µM | 1 to 10 µM | 
Cc1cnc(Nc2cnn(CC(=O)N(C)C)c2)nc1NCc1ccccc1 [Example I-300] | 0.1 to 1 µM | 1 to 10 µM | 
O=C(Cn1cc(Nc2ncc(Cl)c(NCc3ccccc3)n2)cn1)N1CCCC1 [Example I-196] | 0.01 to 0.1 µM | 1 to 10 µM | 
Cn1cc(Nc2ncc(Cl)c(NCc3cccc(S(N)(=O)=O)c3)n2)cn1 [Example I-198] | 0.1 to 1 µM | 1 to 10 µM | 
N#CCOc1cccc(CNc2nc(Nc3cnn(CC(=O)N4CCOCC4)c3)ncc2Cl)c1 [Example I-366] | 0.01 to 0.1 µM | 1 to 10 µM | 
CCOc1ccc(F)c(CNc2nc(Nc3cnn(CCO)c3)ncc2Cl)c1F [Example I-358] | 0.01 to 0.1 µM | 0.1 to 1 µM | 
Cn1cc(Nc2ncc(Cl)c(NCc3cccnc3F)n2)cn1 [Example I-406] | 0.1 to 1 µM | 0.1 to 1 µM | 
Cc1cnc(Nc2cnn(C)c2)nc1NCc1c(F)ccc(F)c1F [Example I-420] | 0.01 to 0.1 µM | 0.1 to 1 µM | 
Cn1cc(Nc2ncc(F)c(NCc3cccc(F)c3F)n2)cn1 [Example I-177] | 0.1 to 1 µM | 1 to 10 µM | 

Structure (SMILES) | IC50 [1, 3] | IC50 [2] | IC50 ([1]; read-out: TYK2 IC50)
OCCn1cc(Nc2ncc(F)c(NCc3cc(F)ccc3F)n2)cn1 [Example I-203] | ≤ 0.01 µM | 0.01 to 0.1 µM | 
CNC(=O)Cn1cc(Nc2ncc(C)c(NCc3c(F)cccc3F)n2)cn1 [Example I-419] | 0.01 to 0.1 µM | 0.1 to 1 µM | 
CN(C)C(=O)Cn1cc(Nc2ncc(F)c(NCc3c(F)cccc3F)n2)cn1 [Example I-382] | 0.01 to 0.1 µM | 1 to 10 µM | 
CNC(=O)Cn1cc(Nc2ncc(Cl)c(NCc3cc(F)cc(F)c3)n2)cn1 [Example I-190] | 0.1 to 1 µM | 0.1 to 1 µM | 
CC(C)(CO)NC(=O)Cn1cc(Nc2nccc(NCc3c(F)cc(F)cc3F)n2)cn1 [Example I-460] | 0.01 to 0.1 µM | 1 to 10 µM | 
CC(C)(C)NC(=O)Cn1cc(Nc2nccc(NCc3c(F)cc(F)cc3F)n2)cn1 [Example I-51] | 0.01 to 0.1 µM | > 10 µM | 
C[C@@H](CO)NC(=O)Cn1cc(Nc2nccc(NCc3c(Cl)ccc(Cl)c3F)n2)cn1 [Example I-121] | ≤ 0.01 µM | 0.1 to 1 µM | 
CC(C)NC(=O)Cn1cc(Nc2nccc(NCc3c(F)cc(F)cc3F)n2)cn1 [Example I-50] | 0.01 to 0.1 µM | 1 to 10 µM | < 0.1 µM
COc1ccc(F)c(CNc2nc(Nc3cnn(CC(=O)NCC(C)C)c3)ncc2Cl)c1F [Example I-428] | 0.01 to 0.1 µM | 1 to 10 µM | 
CS(=O)(=O)c1ccc(F)c(CNc2nc(Nc3cnn(CC(N)=O)c3)ncc2Cl)c1 [Example I-100] | 0.01 to 0.1 µM | 0.1 to 1 µM | 
O=C(Cn1cc(Nc2nccc(NCc3c(F)cc(F)cc3F)n2)cn1)NC1CC1(F)F (stereo not shown) [Example I-91] | 0.01 to 0.1 µM | > 10 µM | 
CC(C)NC(=O)Cn1cc(Nc2nccc(NCc3c(Cl)cccc3Cl)n2)cn1 [Example I-76] | 0.01 to 0.1 µM | > 10 µM | 
COc1ccc(F)c(CNc2nc(Nc3cnn(CC(=O)N4CCOCC4)c3)ncc2F)c1F [Example I-24] | ≤ 0.01 µM | 1 to 10 µM | 
Cn1cc(Nc2nccc(NCc3c(F)ccc(C#N)c3F)n2)cn1 [Example I-135] | 0.01 to 0.1 µM | 1 to 10 µM | 
O=C(Cn1cc(Nc2ncc(F)c(NCc3c(F)cc(F)cc3F)n2)cn1)NC1CCC1 [Example I-308] | 0.01 to 0.1 µM | > 10 µM | 
COc1ccc(F)c(CNc2ccnc(Nc3cnn(CC(=O)N4CCOCC4)c3)n2)c1F [Example I-117] | ≤ 0.01 µM | 1 to 10 µM | 
O=C(Cn1cc(Nc2ncc(F)c(NCc3cc(F)cc(C(F)(F)F)c3)n2)cn1)N1CCOCC1 [Example I-332] | 0.1 to 1 µM | 1 to 10 µM | 
CC(C)NC(=O)Cn1cc(Nc2nccc(NCc3c(F)ccc(F)c3F)n2)cn1 [Example I-63] | ≤ 0.01 µM | 1 to 10 µM | 
CC(C)NC(=O)Cn1cc(Nc2ncc(F)c(NCc3c(F)cc(F)cc3F)n2)cn1 [Example I-38] | ≤ 0.01 µM | 1 to 10 µM | < 0.1 µM
[2H]C([2H])(O)C([2H])([2H])n1cc(Nc2ncc(Cl)c(NCc3c(F)cccc3F)n2)cn1 [Example I-234] | 0.01 to 0.1 µM | 0.1 to 1 µM | 
N#C[C@H]1CCN(C(=O)Cn2cc(Nc3ncc(Cl)c(NCc4ccccc4)n3)cn2)C1 [Example I-270] | 0.01 to 0.1 µM | 1 to 10 µM | 
COc1ccc(S(C)(=O)=O)cc1CNc1nc(Nc2cnn(CCO)c2)ncc1F [Example I-88] | 0.01 to 0.1 µM | 0.1 to 1 µM | 
C[C@@H](O)Cn1cc(Nc2ncc(Cl)c(NCc3ccccc3F)n2)cn1 [Example I-256] | 0.1 to 1 µM | 1 to 10 µM | 
Cc1cnc(Nc2cnn(CCC(F)(F)F)c2)nc1NCc1cc(F)cc(F)c1 [Example I-463] | 1 to 10 µM | 1 to 10 µM | 
CC(C(N)=O)n1cc(Nc2ncc(Cl)c(NCc3ccccc3)n2)cn1 (stereo not shown) [Example I-285] | 0.1 to 1 µM | 1 to 10 µM | 
